Measurements reported in PubChem BioAssay (NCI).
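Interpolation was linear, between the two tested concentrations surrounding the appropriate level; five concentrations were tested over 48 hours in 96-well plates. At the TGI there is no net growth.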

Legend:
Test in all cases: NCI anticancer screen, dose series, 48 h
PC-3 prostate = test system: PC-3 prostate
RXF 393 renal = test system: RXF 393 renal
HCC-2998 colon = test system: HCC-2998 colon
BT-549 breast = test system: BT-549 breast
HCT-15 colon = test system: HCT-15 colon
OVCAR-4 ovarian = test system: OVCAR-4 ovarian
MDA-MB-435 = test system: MDA-MB-435
A498 renal = test system: A498 renal
SK-MEL-2 melanoma = test system: SK-MEL-2 melanoma
EKVX NSCLC = test system: EKVX NSCLC
ACHN renal = test system: ACHN renal
MOLT-4 leukemia = test system: MOLT-4 leukemia
TK-10 renal = test system: TK-10 renal
MDA-N = test system: MDA-N
SN12C renal = test system: SN12C renal
DU-145 prostate = test system: DU-145 prostate
T-47D breast = test system: T-47D breast
SK-MEL-28 melanoma = test system: SK-MEL-28 melanoma
SK-OV-3 ovarian = test system: SK-OV-3 ovarian
SF-539 CNS = test system: SF-539 CNS
COLO 205 colon = test system: COLO 205 colon
CCRF-CEM leukemia = test system: CCRF-CEM leukemia
HOP-92 NSCLC = test system: HOP-92 NSCLC
HCT-116 colon = test system: HCT-116 colon
NCI-H23 lung = test system: NCI-H23 lung
U251 CNS = test system: U251 CNS
K-562 leukemia = test system: K-562 leukemia
NCI/ADR-RES ovarian = test system: NCI/ADR-RES ovarian
HL-60(TB) leukemia = test system: HL-60(TB) leukemia
786-0 renal = test system: 786-0 renal
HS 578T breast = test system: HS 578T breast
SW-620 colon = test system: SW-620 colon
SF-295 CNS = test system: SF-295 CNS
MCF7 breast = test system: MCF7 breast
OVCAR-8 ovarian = test system: OVCAR-8 ovarian
NCI-H226 lung = test system: NCI-H226 lung
IGROV1 ovarian = test system: IGROV1 ovarian
HOP-62 NSCLC = test system: HOP-62 NSCLC
SK-MEL-5 melanoma = test system: SK-MEL-5 melanoma
KM12 colon = test system: KM12 colon
NCI-H460 lung = test system: NCI-H460 lung
LOX IMVI melanoma = test system: LOX IMVI melanoma
NCI-H522 lung = test system: NCI-H522 lung
RPMI-8226 leukemia = test system: RPMI-8226 leukemia
MALME-3M melanoma = test system: MALME-3M melanoma
UACC-257 melanoma = test system: UACC-257 melanoma
UACC-62 melanoma = test system: UACC-62 melanoma
OVCAR-5 ovarian = test system: OVCAR-5 ovarian
SF-268 CNS = test system: SF-268 CNS
M14 melanoma = test system: M14 melanoma
MDA-MB-231 breast = test system: MDA-MB-231 breast
UO-31 renal = test system: UO-31 renal
HT29 colon = test system: HT29 colon
OVCAR-3 ovarian = test system: OVCAR-3 ovarian
SNB-75 CNS = test system: SNB-75 CNS
SR leukemia = test system: SR leukemia
SNB-19 CNS = test system: SNB-19 CNS
CAKI-1 renal = test system: CAKI-1 renal
A549 NSCLC = test system: A549 NSCLC

## Cc1nc2ccc(S(=O)(=O)Nc3ccccn3)cc2c(=O)n1NS(=O)(=O)c1ccccn1
PC-3 prostate
  TGI: > 100 µM
RXF 393 renal
  TGI: > 100 µM
HCC-2998 colon
  TGI: > 100 µM
BT-549 breast
  TGI: > 100 µM
HCT-15 colon
  TGI: > 100 µM
OVCAR-4 ovarian
  TGI: > 100 µM
MDA-MB-435
  TGI: > 100 µM
A498 renal
  TGI: > 100 µM
SK-MEL-2 melanoma
  TGI: > 100 µM
EKVX NSCLC
  TGI: > 100 µM
ACHN renal
  TGI: > 100 µM
MOLT-4 leukemia
  TGI: > 100 µM
TK-10 renal
  TGI: > 100 µM
MDA-N
  TGI: > 100 µM
SN12C renal
  TGI: > 100 µM
DU-145 prostate
  TGI: > 100 µM
T-47D breast
  TGI: > 100 µM
SK-MEL-28 melanoma
  TGI: > 100 µM
SK-OV-3 ovarian
  TGI: > 100 µM
SF-539 CNS
  TGI: > 100 µM
COLO 205 colon
  TGI: > 100 µM
CCRF-CEM leukemia
  TGI: > 100 µM
HOP-92 NSCLC
  TGI: > 100 µM
HCT-116 colon
  TGI: > 100 µM
NCI-H23 lung
  TGI: > 100 µM
U251 CNS
  TGI: > 100 µM
K-562 leukemia
  TGI: > 100 µM
NCI/ADR-RES ovarian
  TGI: > 100 µM
HL-60(TB) leukemia
  TGI: > 100 µM
786-0 renal
  TGI: > 100 µM
HS 578T breast
  TGI: > 100 µM
SW-620 colon
  TGI: > 100 µM
SF-295 CNS
  TGI: > 100 µM
MCF7 breast
  TGI: > 100 µM
OVCAR-8 ovarian
  TGI: > 100 µM
NCI-H226 lung
  TGI: > 100 µM
IGROV1 ovarian
  TGI: > 100 µM
HOP-62 NSCLC
  TGI: > 100 µM
SK-MEL-5 melanoma
  TGI: > 100 µM
KM12 colon
  TGI: > 100 µM
NCI-H460 lung
  TGI: > 100 µM
LOX IMVI melanoma
  TGI: > 100 µM
NCI-H522 lung
  TGI: > 100 µM
RPMI-8226 leukemia
  TGI: > 100 µM
MALME-3M melanoma
  TGI: > 100 µM
UACC-257 melanoma
  TGI: > 100 µM
UACC-62 melanoma
  TGI: > 100 µM
OVCAR-5 ovarian
  TGI: > 100 µM
SF-268 CNS
  TGI: > 100 µM
M14 melanoma
  TGI: > 100 µM
MDA-MB-231 breast
  TGI: > 100 µM
UO-31 renal
  TGI: > 100 µM
HT29 colon
  TGI: > 100 µM
OVCAR-3 ovarian
  TGI: > 100 µM
SNB-75 CNS
  TGI: > 100 µM
SR leukemia
  TGI: > 100 µM
SNB-19 CNS
  TGI: > 100 µM
CAKI-1 renal
  TGI: > 100 µM

## CC(=O)O[C@H]1CC[C@@]2(C)C(=CC[C@H]3[C@@H]4C[C@H](N5CCN(C)CC5)[C@H](OC(C)=O)[C@@]4(C)CC[C@@H]32)C1
PC-3 prostate
  TGI: 32.5 µM
RXF 393 renal
  TGI: 40.3 µM
HCC-2998 colon
  TGI: 30.1 µM
BT-549 breast
  TGI: 32.8 µM
HCT-15 colon
  TGI: 26.6 µM
OVCAR-4 ovarian
  TGI: 32.6 µM
MDA-MB-435
  TGI: 19.2 µM
A498 renal
  TGI: 48.3 µM
SK-MEL-2 melanoma
  TGI: 33.3 µM
EKVX NSCLC
  TGI: 59.9 µM
ACHN renal
  TGI: > 100 µM
MOLT-4 leukemia
  TGI: 16.8 µM
TK-10 renal
  TGI: > 100 µM
MDA-N
  TGI: 26.5 µM
SN12C renal
  TGI: 67.8 µM
DU-145 prostate
  TGI: > 100 µM
A549 NSCLC
  TGI: 36 µM
T-47D breast
  TGI: 41.2 µM
SK-MEL-28 melanoma
  TGI: 26.1 µM
SK-OV-3 ovarian
  TGI: > 65.8 µM
SF-539 CNS
  TGI: 13.7 µM
COLO 205 colon
  TGI: 32.8 µM
CCRF-CEM leukemia
  TGI: 16 µM
HOP-92 NSCLC
  TGI: 92.7 µM
HCT-116 colon
  TGI: 25.7 µM
NCI-H23 lung
  TGI: 48.3 µM
U251 CNS
  TGI: 40.5 µM
K-562 leukemia
  TGI: 4.07 µM
NCI/ADR-RES ovarian
  TGI: 44.6 µM
HL-60(TB) leukemia
  TGI: 6.9 µM
786-0 renal
  TGI: 35.3 µM
HS 578T breast
  TGI: 61.8 µM
SW-620 colon
  TGI: 29.8 µM
SF-295 CNS
  TGI: 45.7 µM
MCF7 breast
  TGI: 15.3 µM
OVCAR-8 ovarian
  TGI: 30.5 µM
NCI-H226 lung
  TGI: > 85.6 µM
IGROV1 ovarian
  TGI: 37.9 µM
HOP-62 NSCLC
  TGI: 52.6 µM
SK-MEL-5 melanoma
  TGI: 12.5 µM
KM12 colon
  TGI: 32.3 µM
NCI-H460 lung
  TGI: 49.4 µM
LOX IMVI melanoma
  TGI: 7.83 µM
NCI-H522 lung
  TGI: 34.9 µM
RPMI-8226 leukemia
  TGI: 14.7 µM
MALME-3M melanoma
  TGI: 24.8 µM
UACC-257 melanoma
  TGI: 17.3 µM
UACC-62 melanoma
  TGI: 26.4 µM
OVCAR-5 ovarian
  TGI: 76.9 µM
SF-268 CNS
  TGI: 42.7 µM
M14 melanoma
  TGI: 8.2 µM
MDA-MB-231 breast
  TGI: 34.3 µM
UO-31 renal
  TGI: > 90.9 µM
HT29 colon
  TGI: 12.8 µM
OVCAR-3 ovarian
  TGI: 21.5 µM
SNB-75 CNS
  TGI: 62.6 µM
SR leukemia
  TGI: 11.4 µM
SNB-19 CNS
  TGI: 58.9 µM
CAKI-1 renal
  TGI: > 66.5 µM
